Reference: US7491794B2, “Macrocyclic compounds as inhibitors of viral replication” (Intermune, Inc., priority 2003, dated 2009)

molecular target: T1, NS3-NS4A protease (Hepatitis C virus genotype 1a, UniProt P27958); test: NS3-NS4A protease assay (NS3 inhibition assay, RETS1 substrate), Section B; assay type: biochemical; details: read-out: NS3-NS4A IC50
T1 construct: Recombinant E. coli or Baculovirus full-length NS3 was diluted to 3.33 μM with assay buffer; made in house; host or cells: E. coli or baculovirus (BV) system
T1 sequence (P27958 1027-1657): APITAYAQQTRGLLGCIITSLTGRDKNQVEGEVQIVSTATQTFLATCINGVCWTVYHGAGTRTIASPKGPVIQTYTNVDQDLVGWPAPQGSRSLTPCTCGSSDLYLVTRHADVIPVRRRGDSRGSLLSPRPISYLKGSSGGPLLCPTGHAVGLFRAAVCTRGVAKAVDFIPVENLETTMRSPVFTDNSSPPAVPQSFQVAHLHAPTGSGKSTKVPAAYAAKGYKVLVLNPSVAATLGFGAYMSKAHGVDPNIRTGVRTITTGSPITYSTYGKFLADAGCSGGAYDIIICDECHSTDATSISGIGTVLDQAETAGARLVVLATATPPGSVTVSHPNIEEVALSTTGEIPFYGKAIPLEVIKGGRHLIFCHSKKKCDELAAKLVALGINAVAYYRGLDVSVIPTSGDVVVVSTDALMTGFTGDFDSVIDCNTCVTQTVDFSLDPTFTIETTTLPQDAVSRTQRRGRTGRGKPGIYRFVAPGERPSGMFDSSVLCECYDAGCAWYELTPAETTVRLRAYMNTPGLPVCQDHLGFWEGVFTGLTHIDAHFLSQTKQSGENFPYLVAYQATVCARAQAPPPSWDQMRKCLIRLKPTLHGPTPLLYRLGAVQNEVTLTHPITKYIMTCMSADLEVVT
Protocol: NS3 complex formation with NS4A-2
Recombinant E. coli or Baculovirus full-length NS3 was diluted to 3.33 μM with assay buffer and the material transferred to an eppendorf tube and place in water bath in 4° C. refrigerator. The appropriate amount of NS4A-2 to 8.3 mM in assay buffer was added to equal the volume of NS3 in step 2.1.1 (conversion factor −3.8 mg/272 μL assay buffer). The material was transferred to an eppendorf tube and placed in a water bath in a 4° C. refrigerator.
After equilibration to 4° C., equal volumes of NS3 and NS4A-2 solutions were combined in an eppendorf tube, mixed gently with a manual pipettor, and the mixture incubated for 15 minutes in the 4° C. water bath. Final concentrations in the mixture were 1.67 μM NS3, 4.15 mM NS4A-2 (2485-fold molar excess NS4A-2).
After 15 minutes at 4° C., the NS3/NS4A-2 eppendorf tube was removed and placed in a room temperature water bath for 10 minutes. NS3/NS4A-2 was aliquoted at appropriate volumes and store at −80° C. (E. coli NS3 run at 2 nM in assay, aliquot at 25 μL. BV NS3 run at 3 nM in assay, aliquot at 30 μL.
Step 2.2.5. Sample compounds were dissolved to 10 mM in DMSO then diluted to 2.5 mM (1:4) in DMSO.
Step 2.2.6. The E. coli NS3/NS4A-2 was diluted to 4 nM NS3 (1:417.5 of 1.67 μM stock−18 μL 1.67 μM stock+7497 μL assay buffer).
The BV NS3/NS4A-2 was diluted to 6 nM NS3 (1:278.3 of 1.67 μM stock−24 μL 1.67 μM stock+6655 μL assay buffer).
Step 2.2.7. Using the manual multichannel pipettor, and being careful not to introduce bubbles into the plate, 50 μL assay buffer was added to wells A01-H01 of a black Costar 96-well polypropylene storage plate.
Step 2.2.8. Using the manual multichannel pipettor, and being careful not to introduce bubbles into the plate, 50 μL of diluted NS3/NS4A-2 from step 2.2.6 was added to wells A02-H12 of plate in step 2.2.7.
Step 2.2.9. Using the manual multichannel pipettor, and being careful not to introduce bubbles into the plate, 25 μL of the wells in drug dilution plate in step 2.2.5 were transferred to corresponding wells in assay plate in step 2.2.8. The tips on multichannel pipettor were changed for each row of compounds transferred.
Step 2.2.10. Using the manual multichannel pipettor, and being careful not to introduce bubbles into the plate, the wells from the assay plate in step 2.2.9 were mixed by aspirating and dispensing 35 μL of the 75 μL in each well five times. The tips on multichannel pipettor were changed for each row of wells mixed.
Step 2.2.11. The plate was covered with a polystyrene plate lid, and the plate from step 2.2.10 containing NS3 protease and sample compounds was pre-incubated 10 minutes at room temperature.
While the plate from step 2.2.11 was pre-incubating, the RETS1 substrate was diluted in a 15 mL polypropylene centrifuge tube. The RETS1 substrate was diluted to 8 μM (1:80.75 of 646 μM stock−65 μL 646 μM stock+5184 μL assay buffer).
After the plate in step 2.2.11 was done pre-incubating, and using the manual multichannel, 25 μL of substrate was added to all wells on the plate. The contents of the wells were quickly mixed, as in step 2.2.10, but mixing 65 μL of the 100 μL in the wells.
The plate was read in kinetic mode on the Molecular Devices SpectraMax Gemini XS plate reader. Reader settings: Read time: 30 minutes, Interval: 36 seconds, Reads: 51, Excitation λ: 335 nm, Emission λ: 495 nm, cutoff: 475 nm, Automix: off, Calibrate: once, PMT: high, Reads/well: 6, Vmax pts: 21 or 28/51 depending on length of linearity of reaction.
IC50s were determined using a four parameter curve fit equation, and converted to Ki's using the following Km's:
where Ki=IC50/(1+[S]/Km))

| SMILES | IC50 [µM] |
| --- | --- |
| Cc1nc2c(s1)CN(C(=O)O[C@@H]1C[C@H]3C(=O)N[C@]4(C(=O)O)C[C@H]4/C=C\CCCCC[C@H](NC(=O)OC(C)(C)C)C(=O)N3C1)CC2 [AR00304158, (1S,4R,6S,14S,18R)-14-tert-Butoxycarbonylamino-18-(2-methyl-6,7-dihydro-4H-thiazolo[5,4-c]pyridine-5-carbonyloxy)-2,15-dioxo-3,16-diaza-tricyclo[14.3.0.0^4,6]nonadec-7-ene-4-carboxylic acid] | < 50 |
| CC(C)(C)OC(=O)N[C@H]1CCCCC/C=C\[C@@H]2C[C@@]2(C(=O)O)NC(=O)[C@@H]2C[C@@H](NC(=O)N3CCCc4ccccc43)CN2C1=O [AR00304160, (1S,4R,6S,14S,18R)-14-tert-Butoxycarbonylamino-18-[(3,4-dihydro-2H-quinoline-1-carbonyl)-amino]-2,15-dioxo-3,16-diaza-tricyclo[14.3.0.0^4,6]nonadec-7-ene-4-carboxylic acid] | < 50 |
| CC(C)(C)OC(=O)N[C@H]1CCCCC/C=C\[C@@H]2C[C@@]2(C(=O)O)NC(=O)[C@@H]2C[C@@H](OC(=O)N3CCc4ncncc4C3)CN2C1=O [AR00304183, (1S,4R,6S,14S,18R)-14-tert-Butoxycarbonylamino-18-(7,8-dihydro-5H-pyrido[4,3-d]pyrimidine-6-carbonyloxy)-2,15-dioxo-3,16-diaza-tricyclo[14.3.0.0^4,6]nonadec-7-ene-4-carboxylic acid] | < 50 |
| CC(C)(C)OC(=O)N[C@H]1CCCCCCC[C@@H]2C[C@@]2(C(=O)O)NC(=O)[C@@H]2C[C@@H](OC(=O)N3CCc4ccccc4C3)CN2C1=O [AR00312023] | < 1 |
| CC(C)(C)OC(=O)N[C@H]1CCCCC/C=C\[C@@H]2C[C@@]2(C(=O)O)NC(=O)[C@@H]2C[C@@H](OC(=O)N3CCc4cc(N)ccc4C3)CN2C1=O [AR00314578, (1S,4R,6S,14S,18R)-18-(6-Amino-3,4-dihydro-1H-isoquinoline-2-carbonyloxy)-14-tert-butoxycarbonylamino-2,15-dioxo-3,16-diaza-tricyclo[14.3.0.0^4,6]nonadec-7-ene-4-carboxylic acid] | < 1 |
| CC(=O)Nc1nc2c(s1)CN(C(=O)O[C@@H]1C[C@H]3C(=O)N[C@]4(C(=O)O)C[C@H]4/C=C\CCCCC[C@H](NC(=O)OC(C)(C)C)C(=O)N3C1)CC2 [AR00314685, (1S,4R,6S,14S,18R)-18-(2-Acetylamino-6,7-dihydro-4H-thiazolo[5,4-c]pyridine-5-carbonyloxy)-14-tert-butoxycarbonylamino-2,15-dioxo-3,16-diaza-tricyclo[14.3.0.0^4,6]nonadec-7-ene-4-carboxylic acid] | < 50 |
| O=C(NC1CCOC1)N[C@H]1CCCCC/C=C\[C@@H]2C[C@@]2(C(=O)O)NC(=O)[C@@H]2C[C@@H](OC(=O)N3CCc4ccccc4C3)CN2C1=O (stereo partly drawn) [AR00320221, (1S,4R,6S,14S,18R)-18-(3,4-Dihydro-1H-isoquinoline-2-carbonyloxy)-2,15-dioxo-14-[3-(tetrahydro-furan-3-yl)-ureido]-3,16-diaza-tricyclo[14.3.0.0^4,6]nonadec-7-ene-4-carboxylic acid] | < 1 |
| O=C(N[C@H]1CCCCC/C=C\[C@@H]2C[C@@]2(C(=O)O)NC(=O)[C@@H]2C[C@@H](OC(=O)N3Cc4cc(Cl)c(Cl)cc4C3)CN2C1=O)O[C@@H]1CCOC1 [AR00320445, (1S,4R,6S,14S,18R)-18-(5,6-Dichloro-1,3-dihydro-isoindole-2-carbonyloxy)-2,15-dioxo-14-(tetrahydro-furan-3R-yloxycarbonylamino)-3,16-diaza-tricyclo[14.3.0.0^4,6]nonadec-7-ene-4-carboxylic acid] | < 10 |
| COc1ccccc1C1CCN(C(=O)O[C@@H]2C[C@H]3C(=O)N[C@]4(C(=O)O)C[C@H]4/C=C\CCCCC[C@H](NC(=O)OC(C)(C)C)C(=O)N3C2)CC1 [AR00320576, (1S,4R,6S,14S,18R)-14-tert-Butoxycarbonylamino-18-[4-(2-methoxy-phenyl)-piperidine-1-carbonyloxy]-2,15-dioxo-3,16-diaza-tricyclo[14.3.0.0^4,6]nonadec-7-ene-4-carboxylic acid] | < 10 |
| CN(C)CC1c2ccccc2CCN1C(=O)O[C@@H]1C[C@H]2C(=O)N[C@]3(C(=O)O)C[C@H]3/C=C\CCCCC[C@H](NC(=O)OC(C)(C)C)C(=O)N2C1 (stereo partly drawn) [AR00333224, (1S,4R,6S,14S,18R)-14-tert-Butoxycarbonylamino-18-(1-dimethylaminomethyl-3,4-dihydro-1H-isoquinoline-2-carbonyloxy)-2,15-dioxo-3,16-diaza-tricyclo[14.3.0.0^4,6]nonadec-7-ene-4-carboxylic acid] | < 10 |
| CC(C)(C)OC(=O)N[C@H]1CCCCC/C=C\[C@@H]2C[C@@]2(C(=O)O)NC(=O)[C@@H]2C[C@@H](OC(=O)N3CCc4ccccc4C3CN3CCOCC3)CN2C1=O (stereo partly drawn) [AR00333225, (1S,4R,6S,14S,18R)-14-tert-Butoxycarbonylamino-18-(1-morpholin-4-ylmethyl-3,4-dihydro-1H-isoquinoline-2-carbonyloxy)-2,15-dioxo-3,16-diaza-tricyclo[14.3.0.0^4,6]nonadec-7-ene-4-carboxylic acid] | < 10 |
| COc1ccc2c(c1)CCN(C(=O)O[C@@H]1C[C@H]3C(=O)N[C@]4(C(=O)O)C[C@H]4/C=C\CCCCC[C@H](NC(=O)OC(C)(C)C)C(=O)N3C1)C2CN1CCCCC1 (stereo partly drawn) [AR00333248, (1S,4R,6S,14S,18R)-14-tert-Butoxycarbonylamino-18-(6-methoxy-1-piperidin-1-ylmethyl-3,4-dihydro-1H-isoquinoline-2-carbonyloxy)-2,15-dioxo-3,16-diaza-tricyclo[14.3.0.0^4,6]nonadec-7-ene-4-carboxylic acid] | < 10 |
| COc1ccc2c(c1)CCN(C(=O)O[C@@H]1C[C@H]3C(=O)N[C@]4(C(=O)O)C[C@H]4/C=C\CCCCC[C@H](NC(=O)OC(C)(C)C)C(=O)N3C1)C2CN1CCOCC1 (stereo partly drawn) [AR00333276, (1S,4R,6S,14S,18R)-14-tert-Butoxycarbonylamino-18-(6-methoxy-1-morpholin-4-ylmethyl-3,4-dihydro-1H-isoquinoline-2-carbonyloxy)-2,15-dioxo-3,16-diaza-tricyclo[14.3.0.0^4,6]nonadec-7-ene-4-carboxylic acid] | < 10 |
| COc1ccc2c(c1)CCN(C(=O)O[C@@H]1C[C@H]3C(=O)N[C@]4(C(=O)O)C[C@H]4/C=C\CCCCC[C@H](NC(=O)OC(C)(C)C)C(=O)N3C1)C2CN(C)C (stereo partly drawn) [AR00333277, (1S,4R,6S,14S,18R)-14-tert-Butoxycarbonylamino-18-(1-dimethylaminomethyl-6-methoxy-3,4-dihydro-1H-isoquinoline-2-carbonyloxy)-2,15-dioxo-3,16-diaza-tricyclo[14.3.0.0^4,6]nonadec-7-ene-4-carboxylic acid] | < 10 |
| CC(C)(C)OC(=O)N[C@H]1CCCCC/C=C\[C@@H]2C[C@@]2(C(=O)NS(=O)(=O)c2cc(C(=O)O)ccc2Cl)NC(=O)[C@@H]2C[C@@H](OC(=O)N3Cc4ccccc4C3)CN2C1=O [AR00365388, (1S,4R,6S,14S,18R)-1,3-Dihydro-isoindole-2-carboxylic acid 14-tert-butoxycarbonylamino-4-(5-carboxy-2-chloro-benzenesulfonylaminocarbonyl)-2,15-dioxo-3,16-diaza-tricyclo[14.3.0.0^4,6]nonadec-7-en-18-yl ester] | < 0.1 |
